One block for each compound: values may come before it.
Test system: 324938-238-R-J1-PDC complex spheroids viability
Experiment: Anticancer human tumor 324938-238-R-J1-PDC patient-derived bladder carcinoma cell line growth inhibition [CLK]
Settings: for IC50: curve of first compound; for viability, T/C: stronger effect = lower value
Outline: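 Multi-cell-type spheroids combined patient-derived tumor cells with HUVEC endothelial cells and human mesenchymal stem cells. Paired agents were dosed in half-log steps down from about clinical Cmax, or from 10 microM where Cmax was unknown.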

[1] = second compound 0.0316 µM, first compound 0.0316 µM
[2] = second compound 0.0316 µM, first compound 0.1 µM
[3] = second compound 0.0316 µM, first compound 0.316 µM
[4] = second compound 0.0316 µM, first compound 1 µM
[5] = second compound 0.0316 µM, first compound 3.16 µM
[6] = second compound 0.0316 µM, first compound 10 µM
[7] = second compound 0.1 µM, first compound 0.0316 µM
[8] = second compound 0.1 µM, first compound 0.1 µM
[9] = second compound 0.1 µM, first compound 0.316 µM
[10] = second compound 0.1 µM, first compound 1 µM
[11] = second compound 0.1 µM, first compound 3.16 µM
[12] = second compound 0.1 µM, first compound 10 µM
[13] = second compound 0.316 µM, first compound 0.0316 µM
[14] = second compound 0.316 µM, first compound 0.1 µM
[15] = second compound 0.316 µM, first compound 0.316 µM
[16] = second compound 0.316 µM, first compound 1 µM
[17] = second compound 0.316 µM, first compound 3.16 µM
[18] = second compound 0.316 µM, first compound 10 µM
[19] = second compound 1 µM, first compound 0.0316 µM
[20] = second compound 1 µM, first compound 0.1 µM
[21] = second compound 1 µM, first compound 0.316 µM
[22] = second compound 1 µM, first compound 1 µM
[23] = second compound 1 µM, first compound 3.16 µM
[24] = second compound 1 µM, first compound 10 µM
[25] = second compound 3.16 µM, first compound 0.0316 µM
[26] = second compound 3.16 µM, first compound 0.1 µM
[27] = second compound 3.16 µM, first compound 0.316 µM
[28] = second compound 3.16 µM, first compound 1 µM
[29] = second compound 3.16 µM, first compound 3.16 µM
[30] = second compound 3.16 µM, first compound 10 µM
[31] = second compound 10 µM, first compound 0.0316 µM
[32] = second compound 10 µM, first compound 0.1 µM
[33] = second compound 10 µM, first compound 0.316 µM
[34] = second compound 10 µM, first compound 1 µM
[35] = second compound 10 µM, first compound 3.16 µM
[36] = second compound 10 µM, first compound 10 µM
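Also: viability read after seven days of drug exposure.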
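For viability, T/C in this document: 100% = DMSO vehicle control wells.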

IC50 (second compound 0.0316 µM): 1.27 nM
IC50 (second compound 0.1 µM): < 0.949 nM
IC50 (second compound 0.316 µM): < 0.949 nM
IC50 (second compound 1 µM): < 0.949 nM
IC50 (second compound 3.16 µM): < 0.949 nM
IC50 (second compound 10 µM): < 0.949 nM
SMILES: CC(C)CC(NC(=O)C(Cc1ccccc1)NC(=O)c1cnccn1)B(O)O (stereo not drawn) + CNC(=O)c1ccc(Nc2nc(OC3CCCC3)c3c(-c4ccc5nc(C)oc5c4)c[nH]c3n2)c(OC)c1
viability, T/C (second compound 0.0316 µM, first compound 0.000949 µM): 66.2%
viability, T/C (second compound 0.0316 µM, first compound 0.003 µM): 1.72%
viability, T/C (second compound 0.0316 µM, first compound 0.00949 µM): 0.22%
viability, T/C (second compound 0.0316 µM, first compound 0.03 µM): 0.21%
viability, T/C (second compound 0.0316 µM, first compound 0.0949 µM): 0.13%
viability, T/C (second compound 0.0316 µM, first compound 0.3 µM): 0.19%
viability, T/C (second compound 0.1 µM, first compound 0.000949 µM): 37.7%
viability, T/C (second compound 0.1 µM, first compound 0.003 µM): 1.25%
viability, T/C (second compound 0.1 µM, first compound 0.00949 µM): 0.18%
viability, T/C (second compound 0.1 µM, first compound 0.03 µM): 0.13%
viability, T/C (second compound 0.1 µM, first compound 0.0949 µM): 0.55%
viability, T/C (second compound 0.1 µM, first compound 0.3 µM): 0.13%
viability, T/C (second compound 0.316 µM, first compound 0.000949 µM): 21.6%
viability, T/C (second compound 0.316 µM, first compound 0.003 µM): 1.05%
viability, T/C (second compound 0.316 µM, first compound 0.00949 µM): 0.17%
viability, T/C (second compound 0.316 µM, first compound 0.03 µM): 0.08%
viability, T/C (second compound 0.316 µM, first compound 0.0949 µM): 0.1%
viability, T/C (second compound 0.316 µM, first compound 0.3 µM): 0.13%
viability, T/C (second compound 1 µM, first compound 0.000949 µM): 17.3%
viability, T/C (second compound 1 µM, first compound 0.003 µM): 0.5%
viability, T/C (second compound 1 µM, first compound 0.00949 µM): 0.13%
viability, T/C (second compound 1 µM, first compound 0.03 µM): 0.1%
viability, T/C (second compound 1 µM, first compound 0.0949 µM): 0.1%
viability, T/C (second compound 1 µM, first compound 0.3 µM): 0.12%
viability, T/C (second compound 3.16 µM, first compound 0.000949 µM): 12.2%
viability, T/C (second compound 3.16 µM, first compound 0.003 µM): 0.3%
viability, T/C (second compound 3.16 µM, first compound 0.00949 µM): 0.2%
viability, T/C (second compound 3.16 µM, first compound 0.03 µM): 0.09%
viability, T/C (second compound 3.16 µM, first compound 0.0949 µM): 0.14%
viability, T/C (second compound 3.16 µM, first compound 0.3 µM): 0.16%
viability, T/C (second compound 10 µM, first compound 0.000949 µM): 12%
viability, T/C (second compound 10 µM, first compound 0.003 µM): 0.29%
viability, T/C (second compound 10 µM, first compound 0.00949 µM): 0.87%
viability, T/C (second compound 10 µM, first compound 0.03 µM): 0.13%
viability, T/C (second compound 10 µM, first compound 0.0949 µM): 1.24%
viability, T/C (second compound 10 µM, first compound 0.3 µM): 0.19%

IC50 (second compound 0.0316 µM): 4520 nM
IC50 (second compound 0.1 µM): < 31.6 nM
IC50 (second compound 0.316 µM): < 31.6 nM
IC50 (second compound 1 µM): < 31.6 nM
IC50 (second compound 3.16 µM): < 31.6 nM
IC50 (second compound 10 µM): < 31.6 nM
SMILES: CC1(C)CCC(CN2CCN(c3ccc(C(=O)NS(=O)(=O)c4ccc(NCC5CCOCC5)c([N+](=O)[O-])c4)c(Oc4cnc5[nH]ccc5c4)c3)CC2)=C(c2ccc(Cl)cc2)C1 + CNC(=O)c1ccc(Nc2nc(OC3CCCC3)c3c(-c4ccc5nc(C)oc5c4)c[nH]c3n2)c(OC)c1
viability, T/C [1]: 76.8%
viability, T/C [2]: 78.4%
viability, T/C [3]: 84.1%
viability, T/C [4]: 83.6%
viability, T/C [5]: 69.4%
viability, T/C [6]: 6.56%
viability, T/C [7]: 29.6%
viability, T/C [8]: 25.7%
viability, T/C [9]: 26.6%
viability, T/C [10]: 19.6%
viability, T/C [11]: 19.8%
viability, T/C [12]: 4.63%
viability, T/C [13]: 18.9%
viability, T/C [14]: 14.3%
viability, T/C [15]: 15.2%
viability, T/C [16]: 13.7%
viability, T/C [17]: 14.6%
viability, T/C [18]: 4.21%
viability, T/C [19]: 14.7%
viability, T/C [20]: 21.3%
viability, T/C [21]: 14.7%
viability, T/C [22]: 14.5%
viability, T/C [23]: 13.2%
viability, T/C [24]: 7.92%
viability, T/C [25]: 17.9%
viability, T/C [26]: 14.5%
viability, T/C [27]: 14%
viability, T/C [28]: 14.8%
viability, T/C [29]: 13.6%
viability, T/C [30]: 8.16%
viability, T/C [31]: 14.8%
viability, T/C [32]: 15.1%
viability, T/C [33]: 15.8%
viability, T/C [34]: 14.7%
viability, T/C [35]: 14%
viability, T/C [36]: 7.47%

IC50 (second compound 0.0316 µM): 1390 nM
IC50 (second compound 0.1 µM): < 31.6 nM
IC50 (second compound 0.316 µM): < 31.6 nM
IC50 (second compound 1 µM): < 31.6 nM
IC50 (second compound 3.16 µM): < 31.6 nM
IC50 (second compound 10 µM): < 31.6 nM
SMILES: CC1COCCN1c1cc(C2(S(C)(=N)=O)CC2)nc(-c2ccnc3[nH]ccc23)n1 (stereo not drawn) + CNC(=O)c1ccc(Nc2nc(OC3CCCC3)c3c(-c4ccc5nc(C)oc5c4)c[nH]c3n2)c(OC)c1
viability, T/C [1]: 90.4%
viability, T/C [2]: 89.2%
viability, T/C [3]: 71%
viability, T/C [4]: 60.7%
viability, T/C [5]: 31.1%
viability, T/C [6]: 15.5%
viability, T/C [7]: 30.8%
viability, T/C [8]: 29.2%
viability, T/C [9]: 26.2%
viability, T/C [10]: 27.4%
viability, T/C [11]: 24.1%
viability, T/C [12]: 17.1%
viability, T/C [13]: 18.6%
viability, T/C [14]: 19.4%
viability, T/C [15]: 17.2%
viability, T/C [16]: 17.4%
viability, T/C [17]: 12.9%
viability, T/C [18]: 10.9%
viability, T/C [19]: 14.7%
viability, T/C [20]: 15.8%
viability, T/C [21]: 16%
viability, T/C [22]: 12.6%
viability, T/C [23]: 13.9%
viability, T/C [24]: 7.97%
viability, T/C [25]: 16.2%
viability, T/C [26]: 15.1%
viability, T/C [27]: 16.9%
viability, T/C [28]: 15.6%
viability, T/C [29]: 13.1%
viability, T/C [30]: 7.09%
viability, T/C [31]: 16.6%
viability, T/C [32]: 15.1%
viability, T/C [33]: 16.7%
viability, T/C [34]: 15.2%
viability, T/C [35]: 14.5%
viability, T/C [36]: 8.22%

IC50 (second compound 0.0316 µM): 4260 nM
IC50 (second compound 0.1 µM): < 31.6 nM
IC50 (second compound 0.316 µM): < 31.6 nM
IC50 (second compound 1 µM): < 31.6 nM
IC50 (second compound 3.16 µM): < 31.6 nM
IC50 (second compound 10 µM): < 31.6 nM
SMILES: O=C(c1cc(Cc2n[nH]c(=O)c3ccccc23)ccc1F)N1CCN(C(=O)C2CC2)CC1 + CNC(=O)c1ccc(Nc2nc(OC3CCCC3)c3c(-c4ccc5nc(C)oc5c4)c[nH]c3n2)c(OC)c1
viability, T/C [1]: 90.9%
viability, T/C [2]: 78.5%
viability, T/C [3]: 83.2%
viability, T/C [4]: 77.7%
viability, T/C [5]: 56.9%
viability, T/C [6]: 29.4%
viability, T/C [7]: 31.1%
viability, T/C [8]: 27.2%
viability, T/C [9]: 24.9%
viability, T/C [10]: 28%
viability, T/C [11]: 30.4%
viability, T/C [12]: 20.8%
viability, T/C [13]: 18.6%
viability, T/C [14]: 20.8%
viability, T/C [15]: 16.2%
viability, T/C [16]: 21.2%
viability, T/C [17]: 19%
viability, T/C [18]: 17.9%
viability, T/C [19]: 15.9%
viability, T/C [20]: 15.2%
viability, T/C [21]: 16.8%
viability, T/C [22]: 15.3%
viability, T/C [23]: 17.7%
viability, T/C [24]: 15.8%
viability, T/C [25]: 16.9%
viability, T/C [26]: 17.1%
viability, T/C [27]: 19.4%
viability, T/C [28]: 17.3%
viability, T/C [29]: 15.5%
viability, T/C [30]: 17.7%
viability, T/C [31]: 16.2%
viability, T/C [32]: 14.3%
viability, T/C [33]: 15.3%
viability, T/C [34]: 18.2%
viability, T/C [35]: 16.1%
viability, T/C [36]: 17.4%
